pIC50: −log10 of the molar value. Active and inactive are the calls of the source. The calls are words filed in the database; no cut-off is given here.
Tests used:
MV4-11 [1] = assay: Induction of apoptosis in human MV4-11 cells assessed as early apoptotic cells at 2 uM incubated for 18 hrs by annexin V FITC and PI based flow cytometry (reference value: 19.46 to 22.17 %); assay type: functional
MV4-11 [2] = assay: Induction of apoptosis in human MV4-11 cells assessed as viable cells at 4 uM incubated for 18 hrs by annexin V FITC and PI based flow cytometry (reference value: 53.01 to 53.07 %); assay type: functional; conditions: Homo sapiens, MV4-11, 18 h; read-out: Activity
MV4-11 [3] = assay: Induction of apoptosis in human MV4-11 cells assessed as late apoptotic cells at 0.25 uM incubated for 18 hrs by annexin V FITC and PI based flow cytometry (reference value: 9.2 to 9.63 %); assay type: functional
MV4-11 [4] = assay: Induction of apoptosis in human MV4-11 cells assessed as early apoptotic cells at 0.25 uM incubated for 18 hrs by annexin V FITC and PI based flow cytometry (reference value: 19.46 to 22.17 %); assay type: functional
Histone deacetylase 3 = Histone deacetylase 3 (Homo sapiens, UniProt O15379); assay: Inhibition of recombinant full length human HDAC3 expressed in baculovirus infected Sf9 cells using FAM-RHKK-Ac as substrate incubated for 3 hrs by electrophoretic mobility shift assay
[5] = Protein binding in CD-1 mouse plasma at 1 uM incubated for 6 hrs by LCMS analysis; assay type: ADME, cell-free; conditions: CD-1, mouse, read-out: PPB (converted)
MOLM-13 = assay: Cytotoxicity against human MOLM13 cells assessed as reduction in cell viability incubated for 72 hrs by cell-titer blue assay; assay type: functional, cell-based; conditions: MOLM-13, 72 h
[6] = target: T1, Polyamine deacetylase HDAC10 (Homo sapiens, UniProt Q969S8); assay: Inhibition of recombinant full length human HDAC10 expressed in baculovirus infected Sf9 cells using FAM-RHKK-Ac as substrate incubated for 17 hrs by electrophoretic mobility shift assay
T1 sequence (Q969S8 whole entry): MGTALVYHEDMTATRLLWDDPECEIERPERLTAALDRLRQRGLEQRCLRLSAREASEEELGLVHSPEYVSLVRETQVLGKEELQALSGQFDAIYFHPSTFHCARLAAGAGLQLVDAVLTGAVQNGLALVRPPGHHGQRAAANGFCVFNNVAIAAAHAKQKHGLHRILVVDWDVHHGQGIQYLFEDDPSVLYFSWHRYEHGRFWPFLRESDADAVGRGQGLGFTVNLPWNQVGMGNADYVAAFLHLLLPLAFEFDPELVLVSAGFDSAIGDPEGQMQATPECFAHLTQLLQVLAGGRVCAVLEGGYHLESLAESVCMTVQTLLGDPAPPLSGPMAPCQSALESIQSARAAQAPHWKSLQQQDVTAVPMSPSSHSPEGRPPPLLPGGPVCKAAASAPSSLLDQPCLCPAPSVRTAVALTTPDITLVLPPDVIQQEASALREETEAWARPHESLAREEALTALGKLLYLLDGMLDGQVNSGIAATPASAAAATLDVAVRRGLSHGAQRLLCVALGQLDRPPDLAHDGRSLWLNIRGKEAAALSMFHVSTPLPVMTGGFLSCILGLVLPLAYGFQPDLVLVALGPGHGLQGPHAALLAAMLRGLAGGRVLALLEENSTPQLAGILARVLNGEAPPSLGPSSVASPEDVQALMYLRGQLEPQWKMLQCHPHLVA

MV4-11 [7] = assay: Induction of apoptosis in human MV4-11 cells assessed as late apoptotic cells at 0.5 uM incubated for 18 hrs by annexin V FITC and PI based flow cytometry (reference value: 9.2 to 9.63 %); assay type: functional
[8] = Tmax in NSG mouse; assay type: ADME; conditions: in vivo
[9] = target: Histone deacetylase (Homo sapiens) (UniProt Q13547+O15379+Q9UBN7+Q92769+Q9UQL6+Q8WUI4+Q9BY41+Q96DB2+P56524+Q9UKV0+Q969S8); assay: Inhibition of HDAC in human MV4-11 cells assessed as […] in acetylated histone H3 at 0.1 to 10 uM incubated for 6 hrs by Western blot analysis; assay type: cell-based
[10] = target: T2, Protein deacetylase HDAC6 (Homo sapiens) (UniProt Q9UBN7); assay: Inhibition of HDAC6 in human MV4-11 cells assessed as increase in acetylated alpha-tubulin incubated for 6 hrs by Western blot analysis; assay type: cell-based
T2 sequence (whole entry): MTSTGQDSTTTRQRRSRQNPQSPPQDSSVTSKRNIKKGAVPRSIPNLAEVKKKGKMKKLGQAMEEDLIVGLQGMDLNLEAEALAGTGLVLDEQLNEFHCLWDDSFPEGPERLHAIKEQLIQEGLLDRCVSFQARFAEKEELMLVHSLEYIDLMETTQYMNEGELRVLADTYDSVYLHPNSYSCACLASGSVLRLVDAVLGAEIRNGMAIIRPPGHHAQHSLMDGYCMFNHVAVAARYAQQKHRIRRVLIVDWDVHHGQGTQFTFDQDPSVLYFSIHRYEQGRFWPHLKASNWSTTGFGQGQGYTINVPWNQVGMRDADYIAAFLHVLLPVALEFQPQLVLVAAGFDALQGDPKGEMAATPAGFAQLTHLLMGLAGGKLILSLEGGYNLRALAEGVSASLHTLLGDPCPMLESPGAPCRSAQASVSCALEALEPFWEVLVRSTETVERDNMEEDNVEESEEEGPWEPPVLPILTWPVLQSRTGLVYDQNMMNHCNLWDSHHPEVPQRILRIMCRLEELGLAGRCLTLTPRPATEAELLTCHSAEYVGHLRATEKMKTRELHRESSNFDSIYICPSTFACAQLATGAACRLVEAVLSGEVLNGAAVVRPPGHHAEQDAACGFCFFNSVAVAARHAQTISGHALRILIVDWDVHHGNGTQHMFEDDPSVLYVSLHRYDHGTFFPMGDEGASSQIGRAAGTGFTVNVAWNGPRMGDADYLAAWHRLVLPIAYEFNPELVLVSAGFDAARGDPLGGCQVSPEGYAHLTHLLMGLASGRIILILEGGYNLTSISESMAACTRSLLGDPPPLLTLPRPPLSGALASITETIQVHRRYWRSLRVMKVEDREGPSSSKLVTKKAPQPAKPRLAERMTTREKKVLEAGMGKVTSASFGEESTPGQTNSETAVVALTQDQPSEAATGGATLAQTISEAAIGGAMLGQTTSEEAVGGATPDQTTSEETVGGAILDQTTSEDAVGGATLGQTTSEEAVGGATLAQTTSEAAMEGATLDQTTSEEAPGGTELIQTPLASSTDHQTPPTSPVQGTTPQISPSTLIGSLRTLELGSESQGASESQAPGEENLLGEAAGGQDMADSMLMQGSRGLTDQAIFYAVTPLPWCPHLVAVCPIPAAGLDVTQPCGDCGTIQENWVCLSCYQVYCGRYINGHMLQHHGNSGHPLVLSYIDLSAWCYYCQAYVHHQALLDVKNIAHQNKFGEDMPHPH

MV4-11 [11] = assay: Induction of apoptosis in human MV4-11 cells assessed as early apoptotic cells at 1 uM incubated for 18 hrs by annexin V FITC and PI based flow cytometry (reference value: 19.46 to 22.17 %); assay type: functional

Sequence of Histone deacetylase 3 (O15379 whole entry): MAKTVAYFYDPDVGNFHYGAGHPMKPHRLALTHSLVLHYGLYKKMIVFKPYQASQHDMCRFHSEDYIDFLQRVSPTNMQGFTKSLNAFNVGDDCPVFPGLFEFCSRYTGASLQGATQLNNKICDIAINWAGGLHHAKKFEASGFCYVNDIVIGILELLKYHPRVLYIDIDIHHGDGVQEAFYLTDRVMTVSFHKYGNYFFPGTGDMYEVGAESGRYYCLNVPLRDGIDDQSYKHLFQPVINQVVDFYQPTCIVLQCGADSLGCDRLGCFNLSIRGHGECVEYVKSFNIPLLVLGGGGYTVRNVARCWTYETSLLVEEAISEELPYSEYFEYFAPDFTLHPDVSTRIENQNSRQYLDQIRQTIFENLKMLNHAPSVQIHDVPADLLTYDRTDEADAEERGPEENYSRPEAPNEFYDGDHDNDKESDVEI

pIC50 (Histone deacetylase 3): 6.73 | fraction unbound at 6 h, 1 µM [5]: 0.047 | pIC50 [6]: 6.05 | Tmax [8]: 8 h | inhibition [9]: Active | inhibition [10]: Dose-dependent effect
SMILES: CC(C)(C)c1ccc(C(=O)Nc2ccc(C(=O)NO)cc2)cc1
Activity (MV4-11 [1]): 27.83% | viability at 4 µM (MV4-11 [2]): 16.3% | Activity (MV4-11 [3]): 8.74% | Activity (MV4-11 [4]): 17.82% | pIC50 (MOLM-13): 5.22 | Activity (MV4-11 [7]): 11.7% | Activity (MV4-11 [11]): 29.78%
